Source: article PMC6333442, “Conserved allosteric pathways for activation of TRPV3 revealed through engineering vanilloid-sensitivity” (eLife, 2019)
Several values for one entry are separate records, joined by “and”; a condition that tells them apart may be missing. Identical values can stand only once.

Experiments:
TRPV1 = tested on: TRPV1; set-up: method as in Zhang et al., 2016; settings: ref Zhang et al., 2016; cited from earlier work
[1] = tested on: TRPV3-6M/V2P (pore domain of rat TRPV2 in TRPV3-6M); assay: Two-electrode voltage clamp, TRPV3-6M/V2P chimera in oocytes; assay type: cell-based, mouse; settings: RTx 100 nM
Method: All channel constructs were expressed in Xenopus laevis oocytes and studied using the two-electrode voltage clamp technique (TEVC) following 1–4 days of incubation after cRNA injection. The animal care and experimental procedures were performed in accordance with the Guide for the Care and Use of Laboratory Animals and were approved by the Animal Care and Use Committee of the National Institute of Neurological Disorders and Stroke (Animal protocol number 1253–17). Oocytes were removed surgically and incubated with agitation for 1 hr in a solution containing (in mM) 82.5 NaCl, 2.5 KCl, 1 MgCl2, 5 HEPES, pH 7.6 (with NaOH), and collagenase (2 mg/ml; Worthington Biochemical, Lakewood, NJ). Defolliculated oocytes were injected with cRNA for each of the constructs and incubated at 17°C in a solution containing (in mM) 96 NaCl, 2 KCl, 1 MgCl2, 1.8 CaCl2, 5 HEPES, pH 7.6 (with NaOH), and gentamicin (50 μg/ml, GIBCO-BRL, Gaithersburg, MD). Oocyte membrane voltage was controlled using an OC-725C oocyte clamp (Warner Instruments, Hamden, CT). Data were filtered at 1–3 kHz and digitized at 20 kHz using pClamp software (Molecular Devices, Sunnyvale, CA) and a Digidata 1440A digitizer (Axon Instruments). Microelectrode resistances were 0.1–1 MΩ when filled with 3 M KCl. For recording TRP channel currents, the external recording solution contained (in mM) 100 KCl, 10 HEPES, pH 7.6 (with KOH). […]
For temperature-activation experiments, calcium-activated chloride currents were minimized by using calcium-free solution containing 30 µM Caccinh-A01 and recording at negative membrane voltages. Heat stimuli were achieved by passing the external recording solution through glass capillary spirals immersed in a water bath maintained at about 70°C, and recordings were performed during constant perfusion with temperature measured using a thermistor (TA-29, Warner Instruments) located close to the cell. […] The mean I vs T relations were calculated by automatically binning each of the recordings in temperature intervals of 2°C, and averaging a single data point within each interval per cell. […]

TRPV3-5PM = molecular target: T1, TRPV3-5PM (Mus musculus, UniProt Q8K424, A606V/F625L/F656I/F666Y/V587L); assay type: cell-based
T1 construct: expressed in transfected cells; host or cells: Xenopus laevis oocytes
T1 sequence (Q8K424 1-791 V587L/A606V/F625L/F656I/F666Y): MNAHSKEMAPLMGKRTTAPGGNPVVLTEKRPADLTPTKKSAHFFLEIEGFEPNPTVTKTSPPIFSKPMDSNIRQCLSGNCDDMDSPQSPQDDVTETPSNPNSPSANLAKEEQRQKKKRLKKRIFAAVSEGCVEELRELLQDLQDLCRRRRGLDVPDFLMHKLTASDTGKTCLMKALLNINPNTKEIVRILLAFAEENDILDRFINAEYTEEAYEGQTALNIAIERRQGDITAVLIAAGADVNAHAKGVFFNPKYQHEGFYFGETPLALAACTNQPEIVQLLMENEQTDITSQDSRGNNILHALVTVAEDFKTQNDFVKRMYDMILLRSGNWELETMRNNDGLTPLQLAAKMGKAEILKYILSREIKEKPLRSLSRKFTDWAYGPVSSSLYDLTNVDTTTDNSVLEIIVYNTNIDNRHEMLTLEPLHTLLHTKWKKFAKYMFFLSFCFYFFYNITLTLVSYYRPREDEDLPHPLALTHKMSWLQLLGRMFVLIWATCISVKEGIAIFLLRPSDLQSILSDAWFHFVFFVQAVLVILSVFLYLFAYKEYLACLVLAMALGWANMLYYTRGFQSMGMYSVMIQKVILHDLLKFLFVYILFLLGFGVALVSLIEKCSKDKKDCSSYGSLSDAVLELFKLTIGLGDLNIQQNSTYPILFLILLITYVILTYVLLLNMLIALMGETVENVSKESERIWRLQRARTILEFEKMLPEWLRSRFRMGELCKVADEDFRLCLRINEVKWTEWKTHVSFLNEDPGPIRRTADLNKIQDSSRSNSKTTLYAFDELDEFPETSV
Method: All channel constructs were expressed in Xenopus laevis oocytes and studied using the two-electrode voltage clamp technique (TEVC) following 1–4 days of incubation after cRNA injection. The animal care and experimental procedures were performed in accordance with the Guide for the Care and Use of Laboratory Animals and were approved by the Animal Care and Use Committee of the National Institute of Neurological Disorders and Stroke (Animal protocol number 1253–17). Oocytes were removed surgically and incubated with agitation for 1 hr in a solution containing (in mM) 82.5 NaCl, 2.5 KCl, 1 MgCl2, 5 HEPES, pH 7.6 (with NaOH), and collagenase (2 mg/ml; Worthington Biochemical, Lakewood, NJ). Defolliculated oocytes were injected with cRNA for each of the constructs and incubated at 17°C in a solution containing (in mM) 96 NaCl, 2 KCl, 1 MgCl2, 1.8 CaCl2, 5 HEPES, pH 7.6 (with NaOH), and gentamicin (50 μg/ml, GIBCO-BRL, Gaithersburg, MD). Oocyte membrane voltage was controlled using an OC-725C oocyte clamp (Warner Instruments, Hamden, CT). Data were filtered at 1–3 kHz and digitized at 20 kHz using pClamp software (Molecular Devices, Sunnyvale, CA) and a Digidata 1440A digitizer (Axon Instruments). Microelectrode resistances were 0.1–1 MΩ when filled with 3 M KCl. For recording TRP channel currents, the external recording solution contained (in mM) 100 KCl, 10 HEPES, pH 7.6 (with KOH). Experiments were performed at room temperature (~22°C), except as indicated otherwise. […] Current time courses were obtained by stepping membrane voltage every 2 s from a holding potential of 0 mV to either −60 or +60 mV for 100 ms, and plotting the mean steady-state current at the end of each voltage step as a function of total recording time. I-V relations were obtained similarly, but voltage was stepped every 2 s to a different value, in 10 mV increments and starting at −60 mV.

**Q.** Which “saturating concentration of RTx” value (TRPV1) does the source give for `C=C(C)[C@]12C[C@@H](C)[C@@]34O[C@](Cc5ccccc5)(O[C@@H]1[C@@H]3C=C(COC(=O)Cc1ccc(O)c(OC)c1)C[C@]1(O)C(=O)C(C)=C[C@@H]41)O2` [RTx, resiniferatoxin] here?
**A.** The value was 100 nM.

**Q.** What about the “channel activation (current response)” value ([1]; room temperature, ±60 mV) of the same compound?
**A.** The value was “robustly activated”.

**Q.** And the “RTx activation on cooling” value ([1]; temperature decreased to 10°C)?
**A.** Its value is “reduced to baseline levels”.

**Q.** What does the source list for `NCCOB(c1ccccc1)c1ccccc1` [2-APB, 2-aminoethoxydiphenyl borate]?
**A.** increase in the apparent affinity for 2-APB (TRPV3-5PM): 20 fold and > 20 fold and ~ 20 fold; s (slope) of Hill fit, 2-APB concentration-response (TRPV3-5PM): 1.32; EC50 (TRPV3-5PM; read-out: apparent affinity (EC50) for activation by 2-APB): 19 ± 2 µM
